In US9062124B2, “GIP-based mixed agonists for treatment of metabolic disorders and obesity” (priority 2008, dated 2015):
Where a SMILES comes first, the peptide text is derived from it. Bridges are numbered along the chain shown (N, C = ends).

How the values were obtained:
Format in all cases: cell-based
[1] = biological target: T1, GLP-1 receptor (Homo sapiens, UniProt P43220); experiment: cAMP synthesis functional assay (firefly luciferase reporter in HEK293 cells), GLP-1 receptor; conditions: Table 1; for GLP-1 Receptor relative activity: relative to the native hormone of the indicated receptor
T1 construct: expressed in transfected cells; host or cells: HEK293

[2] = biological target: T2, glucagon receptor (Homo sapiens, UniProt P47871); experiment: cAMP synthesis functional assay (firefly luciferase reporter in HEK293 cells), glucagon receptor; conditions: Table 1; for Glucagon Receptor relative activity: relative to the native hormone of the indicated receptor
T2 construct: expressed in transfected cells; host or cells: HEK293

[3] = biological target: T3, GIP receptor (Homo sapiens, UniProt P48546); experiment: cAMP synthesis functional assay (firefly luciferase reporter in HEK293 cells), GIP receptor; conditions: Table 1; for GIP Receptor relative activity: relative to the native hormone of the indicated receptor
T3 construct: expressed in transfected cells; host or cells: HEK293
T3 sequence (P48546 22-466): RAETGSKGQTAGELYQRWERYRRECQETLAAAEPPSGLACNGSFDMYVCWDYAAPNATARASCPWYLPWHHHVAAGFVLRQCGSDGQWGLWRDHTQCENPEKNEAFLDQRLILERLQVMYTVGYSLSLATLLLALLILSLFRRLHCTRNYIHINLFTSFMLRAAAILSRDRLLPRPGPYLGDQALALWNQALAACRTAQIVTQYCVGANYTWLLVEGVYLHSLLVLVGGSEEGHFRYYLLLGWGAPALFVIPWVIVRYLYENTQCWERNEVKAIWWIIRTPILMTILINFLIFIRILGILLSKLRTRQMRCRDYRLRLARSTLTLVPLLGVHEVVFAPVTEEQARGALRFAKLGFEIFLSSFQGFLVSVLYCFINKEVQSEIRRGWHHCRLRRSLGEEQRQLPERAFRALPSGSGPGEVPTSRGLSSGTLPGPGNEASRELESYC

T1 sequence (P43220 24-463, species assumed): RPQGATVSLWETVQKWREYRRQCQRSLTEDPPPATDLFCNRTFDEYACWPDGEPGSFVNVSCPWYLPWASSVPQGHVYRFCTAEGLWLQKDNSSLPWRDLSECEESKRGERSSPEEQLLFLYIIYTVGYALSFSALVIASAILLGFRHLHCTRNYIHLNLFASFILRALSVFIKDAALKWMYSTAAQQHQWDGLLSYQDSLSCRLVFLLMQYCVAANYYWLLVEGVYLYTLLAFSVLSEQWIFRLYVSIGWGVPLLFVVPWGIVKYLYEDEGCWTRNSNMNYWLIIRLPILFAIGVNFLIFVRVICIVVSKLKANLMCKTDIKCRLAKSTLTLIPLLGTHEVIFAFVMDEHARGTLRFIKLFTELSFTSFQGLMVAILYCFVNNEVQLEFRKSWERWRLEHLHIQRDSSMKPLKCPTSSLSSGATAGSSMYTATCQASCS
T2 sequence (P47871 26-477): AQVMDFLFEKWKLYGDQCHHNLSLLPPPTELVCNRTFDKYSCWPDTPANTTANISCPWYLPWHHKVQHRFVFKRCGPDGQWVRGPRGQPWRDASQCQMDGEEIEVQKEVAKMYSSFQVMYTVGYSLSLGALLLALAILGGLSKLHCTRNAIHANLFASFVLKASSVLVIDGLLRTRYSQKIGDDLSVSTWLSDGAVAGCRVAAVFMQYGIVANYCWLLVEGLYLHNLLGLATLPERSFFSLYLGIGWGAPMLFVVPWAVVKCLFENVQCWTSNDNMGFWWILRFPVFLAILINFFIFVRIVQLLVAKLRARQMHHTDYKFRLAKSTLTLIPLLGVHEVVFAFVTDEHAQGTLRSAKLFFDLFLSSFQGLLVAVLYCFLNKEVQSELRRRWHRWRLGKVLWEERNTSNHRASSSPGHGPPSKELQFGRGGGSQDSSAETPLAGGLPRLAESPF

CC(C)C[C@H](NC(=O)[C@H](CC(C)C)NC(=O)[C@H](Cc1c[nH]c2ccccc12)NC(=O)[C@H](CC(N)=O)NC(=O)[C@@H](NC(=O)[C@H](Cc1ccccc1)NC(=O)[C@H](CCC(=O)O)NC(=O)[C@@H]1CCCCNC(=O)CC[C@H](NC(=O)[C@H](CC(=O)O)NC(=O)[C@H](CC(C)C)NC(=O)[C@H](Cc2ccc(O)cc2)NC(=O)[C@H](CCCCN)NC(=O)[C@H](CO)NC(=O)[C@H](Cc2ccc(O)cc2)NC(=O)[C@H](CC(=O)O)NC(=O)[C@H](CO)NC(=O)[C@@H](NC(=O)[C@H](Cc2ccccc2)NC(=O)[C@@H](NC(=O)CNC(=O)[C@H](CCC(N)=O)NC(=O)[C@H](CO)NC(=O)[C@@H](N)Cc2ccc(O)cc2)[C@@H](C)O)[C@@H](C)O)C(=O)N[C@@H](CCC(N)=O)C(=O)N[C@@H](C)C(=O)N[C@@H](C)C(=O)N1)C(C)C)C(=O)N[C@@H](C)C(=O)NCC(=O)NCC(=O)N1CCC[C@H]1C(=O)N[C@@H](CO)C(=O)N[C@@H](CO)C(=O)NCC(=O)N[C@@H](C)C(=O)N1CCC[C@H]1C(=O)N1CCC[C@H]1C(=O)N1CCC[C@H]1C(=O)N[C@@H](CO)C(N)=O [mt-127] (H-YSQGTFTSDYSKYLDEQAAKEFVNWLLAGGPSSGAPPPS-NH2; lactam 16-20; N-terminus assumed)
GLP-1 Receptor relative activity [1]: 87.75% | EC50 ([2]; Glucagon Receptor EC50, nM): 0.044 nM | Glucagon Receptor relative activity [2]: 718.39% | GIP Receptor relative activity [3]: 10.51%

CC[C@H](C)[C@H](NC(=O)[C@H](Cc1ccccc1)NC(=O)[C@H](CC(=O)O)NC(=O)[C@@H]1CCCCNC(=O)CC[C@H](NC(=O)[C@H](CC(=O)O)NC(=O)[C@H](CC(C)C)NC(=O)[C@H](Cc2ccc(O)cc2)NC(=O)[C@H](CCCCN)NC(=O)[C@H](CO)NC(=O)[C@H](Cc2ccc(O)cc2)NC(=O)[C@H](CC(=O)O)NC(=O)[C@H](CO)NC(=O)[C@@H](NC(=O)[C@H](Cc2ccccc2)NC(=O)[C@@H](NC(=O)CNC(=O)[C@H](CCC(N)=O)NC(=O)[C@H](CO)NC(=O)[C@@H](N)Cc2c[nH]cn2)[C@@H](C)O)[C@@H](C)O)C(=O)N[C@@H]([C@@H](C)CC)C(=O)N[C@@H](Cc2c[nH]cn2)C(=O)N[C@@H](CCC(N)=O)C(=O)N1)C(=O)N[C@@H](C)C(=O)N[C@@H](Cc1c[nH]c2ccccc12)C(=O)N[C@@H](CC(C)C)C(=O)N[C@@H](CCSC)C(=O)N[C@@H](CC(N)=O)C(=O)NCC(=O)NCC(=O)N1CCC[C@H]1C(=O)N[C@@H](CO)C(=O)N[C@@H](CO)C(=O)NCC(=O)N[C@@H](C)C(=O)N1CCC[C@H]1C(=O)N1CCC[C@H]1C(=O)N1CCC[C@H]1C(=O)N[C@@H](CO)C(N)=O [mt-128] (H-HSQGTFTSDYSKYLDEIHQKDFIAWLMNGGPSSGAPPPS-NH2; lactam 16-20; N-terminus assumed)
GLP-1 Receptor relative activity [1]: 33.33% | Glucagon Receptor relative activity [2]: 11.13% | EC50 ([3]; GIP Receptor EC50, nM): 14.6 nM | GIP Receptor relative activity [3]: 0.42%

CC[C@H](C)[C@H](NC(=O)[C@H](Cc1ccccc1)NC(=O)[C@H](CC(=O)O)NC(=O)[C@@H]1CCCCNC(=O)CC[C@H](NC(=O)[C@H](CC(=O)O)NC(=O)[C@H](CC(C)C)NC(=O)[C@H](Cc2ccc(O)cc2)NC(=O)[C@H](CCCCN)NC(=O)[C@H](CO)NC(=O)[C@H](Cc2ccc(O)cc2)NC(=O)[C@H](CC(=O)O)NC(=O)[C@H](CO)NC(=O)[C@@H](NC(=O)[C@H](Cc2ccccc2)NC(=O)[C@@H](NC(=O)CNC(=O)[C@H](CCC(N)=O)NC(=O)[C@H](CO)NC(=O)[C@@H](N)Cc2ccc(O)cc2)[C@@H](C)O)[C@@H](C)O)C(=O)N[C@@H]([C@@H](C)CC)C(=O)N[C@@H](Cc2c[nH]cn2)C(=O)N[C@@H](CCC(N)=O)C(=O)N1)C(=O)N[C@@H](C)C(=O)N[C@@H](Cc1c[nH]c2ccccc12)C(=O)N[C@@H](CC(C)C)C(=O)N[C@@H](CCSC)C(=O)N[C@@H](CC(N)=O)C(=O)NCC(=O)NCC(=O)N1CCC[C@H]1C(=O)N[C@@H](CO)C(=O)N[C@@H](CO)C(=O)NCC(=O)N[C@@H](C)C(=O)N1CCC[C@H]1C(=O)N1CCC[C@H]1C(=O)N1CCC[C@H]1C(=O)N[C@@H](CO)C(N)=O [mt-129] (H-YSQGTFTSDYSKYLDEIHQKDFIAWLMNGGPSSGAPPPS-NH2; lactam 16-20; N-terminus assumed)
GLP-1 Receptor relative activity [1]: 1.12% | Glucagon Receptor relative activity [2]: 17.34% | GIP Receptor relative activity [3]: 2.06%

CC[C@H](C)[C@H](NC(=O)[C@H](Cc1ccccc1)NC(=O)[C@H](CCC(=O)O)NC(=O)[C@@H]1CCCCNC(=O)CC[C@H](NC(=O)[C@H](CC(=O)O)NC(=O)[C@H](CC(C)C)NC(=O)[C@H](Cc2ccc(O)cc2)NC(=O)[C@H](CCCCN)NC(=O)[C@H](CO)NC(=O)[C@H](Cc2ccc(O)cc2)NC(=O)[C@H](CC(=O)O)NC(=O)[C@H](CO)NC(=O)[C@@H](NC(=O)[C@H](Cc2ccccc2)NC(=O)[C@@H](NC(=O)CNC(=O)[C@H](CCC(N)=O)NC(=O)[C@H](CO)NC(=O)[C@@H](N)Cc2ccc(O)cc2)[C@@H](C)O)[C@@H](C)O)C(=O)N[C@@H](CCC(N)=O)C(=O)N[C@@H](C)C(=O)N[C@@H](C)C(=O)N1)C(=O)N[C@@H](C)C(=O)N[C@@H](Cc1c[nH]c2ccccc12)C(=O)N[C@@H](CC(C)C)C(=O)N[C@@H](CC(C)C)C(=O)N[C@@H](C)C(=O)NCC(=O)NCC(=O)N1CCC[C@H]1C(=O)N[C@@H](CO)C(=O)N[C@@H](CO)C(=O)NCC(=O)N[C@@H](C)C(=O)N1CCC[C@H]1C(=O)N1CCC[C@H]1C(=O)N1CCC[C@H]1C(=O)N[C@@H](CO)C(N)=O [mt-139] (H-YSQGTFTSDYSKYLDEQAAKEFIAWLLAGGPSSGAPPPS-NH2; lactam 16-20; N-terminus assumed)
GLP-1 Receptor relative activity [1]: 41.46% | Glucagon Receptor relative activity [2]: 561.11% | GIP Receptor relative activity [3]: 12.22%

CSCC[C@H](NC(=O)[C@H](Cc1ccc(O)cc1)NC(=O)[C@H](CCCCN)NC(=O)[C@H](CO)NC(=O)[C@H](Cc1ccc(O)cc1)NC(=O)[C@H](CC(=O)O)NC(=O)[C@H](CO)NC(=O)[C@@H](NC(=O)[C@H](Cc1ccccc1)NC(=O)[C@@H](NC(=O)CNC(=O)[C@H](CCC(N)=O)NC(=O)[C@H](CO)NC(=O)[C@@H](N)Cc1ccc(O)cc1)[C@@H](C)O)[C@@H](C)O)C(=O)N[C@@H](CC(=O)O)C(=O)N[C@H]1CCC(=O)NCCCC[C@@H](C(=O)N[C@@H](CCC(=O)O)C(=O)N[C@@H](Cc2ccccc2)C(=O)N[C@H](C(=O)N[C@@H](CC(N)=O)C(=O)N[C@@H](Cc2c[nH]c3ccccc23)C(=O)N[C@@H](CC(C)C)C(=O)N[C@@H](CC(C)C)C(=O)N[C@@H](C)C(=O)NCC(=O)NCC(=O)N2CCC[C@H]2C(=O)N[C@@H](CO)C(=O)N[C@@H](CO)C(=O)NCC(=O)N[C@@H](C)C(=O)N2CCC[C@H]2C(=O)N2CCC[C@H]2C(=O)N2CCC[C@H]2C(=O)N[C@@H](CO)C(N)=O)C(C)C)NC(=O)[C@H](C)NC(=O)[C@H](C)NC(=O)[C@H](CCC(N)=O)NC1=O [mt-141] (H-YSQGTFTSDYSKYMDEQAAKEFVNWLLAGGPSSGAPPPS-NH2; lactam 16-20; N-terminus assumed)
EC50 ([1]; GLP-1 Receptor EC50, nM): 0.16 nM | GLP-1 Receptor relative activity [1]: 36.78% | Glucagon Receptor relative activity [2]: 269.33% | GIP Receptor relative activity [3]: 10.04%

CC(C)C[C@H](NC(=O)[C@H](CC(C)C)NC(=O)[C@H](Cc1c[nH]c2ccccc12)NC(=O)[C@H](CC(N)=O)NC(=O)[C@@H](NC(=O)[C@H](Cc1ccccc1)NC(=O)[C@H](CCC(=O)O)NC(=O)[C@@H]1CCCCNC(=O)CC[C@H](NC(=O)[C@H](CC(=O)O)NC(=O)[C@H](CC(C)C)NC(=O)[C@H](Cc2ccc(O)cc2)NC(=O)[C@H](CCCCN)NC(=O)[C@H](CO)NC(=O)[C@H](Cc2ccc(O)cc2)NC(=O)[C@H](CC(=O)O)NC(=O)[C@H](CO)NC(=O)[C@@H](NC(=O)[C@H](Cc2ccccc2)NC(=O)[C@@H](NC(=O)CNC(=O)[C@H](CCC(N)=O)NC(=O)[C@H](CO)NC(=O)[C@@H](N)Cc2ccc(O)cc2)[C@@H](C)O)[C@@H](C)O)C(=O)N[C@@H](CCCNC(=N)N)C(=O)N[C@@H](CCCNC(=N)N)C(=O)N[C@@H](C)C(=O)N1)C(C)C)C(=O)N[C@@H](C)C(=O)NCC(=O)NCC(=O)N1CCC[C@H]1C(=O)N[C@@H](CO)C(=O)N[C@@H](CO)C(=O)NCC(=O)N[C@@H](C)C(=O)N1CCC[C@H]1C(=O)N1CCC[C@H]1C(=O)N1CCC[C@H]1C(=O)N[C@@H](CO)C(N)=O [mt-143] (H-YSQGTFTSDYSKYLDERRAKEFVNWLLAGGPSSGAPPPS-NH2; lactam 16-20; N-terminus assumed)
GLP-1 Receptor relative activity [1]: 4.53% | Glucagon Receptor relative activity [2]: 496.51% | GIP Receptor relative activity [3]: 1.82%
